Where a name gives a salt, the structure may show the parent alone.
Assays:
[1] = molecular target: human JAK2 (a.a. 828-1132) (Homo sapiens (Human), UniProt O60674); test: In vitro JAK kinase assay (HTRF, phosphorylation of biotinylated peptide); format: biochemical; settings: for IC50: at Km ATP (30 μM ATP for Jak2)
Description: (§1) The compounds of the invention were tested for inhibitory activity of JAK targets according to the following in vitro assay described in Park et al., Analytical Biochemistry 1999, 269, 94-104. The catalytic domains of human JAK1 (a.a. 837-1142), JAK2 (a.a. 828-1132) and JAK3 (a.a. 781-1124) with an N-terminal His tag were expressed using baculovirus in insect cells and purified. The catalytic activity of JAK1, JAK2 or JAK3 was assayed by measuring the phosphorylation of a biotinylated peptide. The phosphorylated peptide was detected by homogenous time resolved fluorescence (HTRF). […] The ATP concentration in the reactions was 90 μM for Jak1, 30 μM for Jak2 and 3 μM for Jak3. Reactions were carried out at room temperature for 1 hr and then stopped with 20 μL 45 mM EDTA, 300 nM SA-APC, 6 nM Eu-Py20 in assay buffer (Perkin Elmer, Boston, Mass.). Binding to the Europium labeled antibody took place for 40 minutes and HTRF signal was measured on a Fusion plate reader (Perkin Elmer, Boston, Mass.).

[2] = molecular target: human JAK1 (a.a. 837-1142) (Homo sapiens, UniProt P23458); test: as above; format: biochemical; settings: at Km ATP (90 μM ATP for Jak1)
Description: as §1

Chain of human JAK2 (a.a. 828-1132) (O60674 828-1132): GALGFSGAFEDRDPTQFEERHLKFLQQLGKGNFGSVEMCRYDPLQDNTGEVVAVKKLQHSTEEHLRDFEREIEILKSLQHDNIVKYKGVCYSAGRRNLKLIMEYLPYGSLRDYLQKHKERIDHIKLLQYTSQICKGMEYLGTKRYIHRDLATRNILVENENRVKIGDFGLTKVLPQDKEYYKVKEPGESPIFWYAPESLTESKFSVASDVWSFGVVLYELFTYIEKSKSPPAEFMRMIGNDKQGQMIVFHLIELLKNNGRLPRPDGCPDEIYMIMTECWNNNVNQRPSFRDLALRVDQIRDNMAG

Row | JAK2 activity compared with the other form/enantiomer (in words) [1] | IC50 [1] | IC50 [2] | SMILES
1 | similarly active | – | – | CCCCCC(CC#N)n1cc(-c2ncnc3[nH]ccc23)cn1.O=P(O)(O)O (single isomer, unassigned) [Example 1, second peak (phosphate salt), 3-[4-(7H-pyrrolo[2,3-d]pyrimidin-4-yl)-1H-pyrazol-1-yl]octanenitrile phosphoric acid salt]
2 | not as potent as the other enantiomer | – | – | CCCCCC(CC#N)n1cc(-c2ncnc3[nH]ccc23)cn1 (single isomer, unassigned) [Example 1, first peak (free base), 3-[4-(7H-pyrrolo[2,3-d]pyrimidin-4-yl)-1H-pyrazol-1-yl]octanenitrile]
3 | – | 1.4 nM | 1.8 nM | CCCCC(CC#N)n1cc(-c2ncnc3[nH]ccc23)cn1 (single isomer, unassigned) [Example 2, first peak (free base), 3-[4-(7H-pyrrolo[2,3-d]pyrimidin-4-yl)-1H-pyrazol-1-yl]heptanenitrile]
4 | – | 0.65 nM | 2 nM | CCCCC(CC#N)n1cc(-c2ncnc3[nH]ccc23)cn1 (single isomer, unassigned) [Example 2, second peak (phosphate salt), 3-[4-(7H-pyrrolo[2,3-d]pyrimidin-4-yl)-1H-pyrazol-1-yl]heptanenitrile phosphoric acid salt]
5 | – | 0.3 nM | 0.57 nM | CCCCC(CC#N)n1cc(-c2ncnc3[nH]ccc23)cn1 (single isomer, unassigned) [Example 2, second peak (free base), 3-[4-(7H-pyrrolo[2,3-d]pyrimidin-4-yl)-1H-pyrazol-1-yl]heptanenitrile]
